From patent US12478602B2, “Method for treating a disorder” (priority 2023, dated 2025)
Like-named read-outs stand apart in the source and are kept apart here.

Tests used:
[1] = system: cortical layer 5 pyramidal neurons; assay: Synaptic pruning: dendritic spine density; assay type: in vivo, mouse; details: 400 mg/kg orally for 2 weeks
Procedure: A mouse model of autism spectrum disorder was created with the method described in Example 1.1. It is known that in autism spectrum disorder, the number of dendrites increases more than necessary due to troubles in synaptic pruning at the critical stage. Therefore, an experiment, which checks whether or not the number of dendrites can be normalized by AST-001 administration, was carried out. After oral administration of 400 mg/kg of AST-001 for 2 weeks to 3-week-old male autism spectrum disorder mice (n=8), it was checked whether or not the spine density of the synaptic dendrites was similar to that of the control group male normal mice (n=3). […] As a result, it was confirmed that oral administration of AST-001 normalizes synaptic pruning at the critical stage in autism spectrum disorder.

[2] = system: mice having autism spectrum disorder; assay: Social cognition experiment in mouse model of autism spectrum disorder; assay type: in vivo; details: 500 mg/kg orally once a day for 2 weeks from age 3 weeks
Source text: Pregnant C57BL/6 mice were subcutaneously injected with valproic acid (VPA) at the time when the gestation period reached 12 days. Male mice were selected from the mice that were born from the pregnant mice that were subcutaneously injected with VPA, and these were used as animals for a mouse model of autism spectrum disorder.
Since 3-week-old mice are at the critical stage, 3-week-old normal mice and 3-week-old mice having autism spectrum disorder were subjected to a sociality experiment, a social cognition experiment, and an anxiety experiment to identify the underlying features. 500 mg/kg of L-serine (hereinafter, referred to as AST-001) was orally administered for 2 weeks to mice having autism spectrum disorder, in which the underlying features had been confirmed. The mice having autism spectrum disorder, to which AST-001 had been orally administered for 2 weeks, were again subjected to a sociality experiment, a social cognition experiment, and an anxiety experiment.
A social cognition experiment, which measures whether or not an experimental mouse moves in the direction of a non-familiar mouse in a case where the experimental mouse is placed between a non-familiar mouse and a familiar mouse, was carried out (see FIG. 1B). […]

healthy adults = assay: Safety evaluation in healthy adults; assay type: in vivo, human; details: single oral up to 30 g per day; 15 g twice a day for 7 days
Procedure: 24 hours before the administration with AST-001 (main component: L-serine), blood was collected to measure the concentration of L-serine. 60 g of an AST-001 powder is a white homogeneous powder without having foreign substances, divided and repackaged into an HDPE bottle or a bottle made of the same material, and the composition of this drug is such that 1,000 mg of the main component L-serine is comprised per 1,000 mg dose. […] As a result, it was confirmed that AST-001 can be safely administered within a dose range of 10 to 30 g per day for indications that require repeated administration. The results of the pharmacokinetic analysis in the AST-001 repeated administration test in healthy adult males are as shown in Table 2 below.

[3] = Pharmacokinetic experiment in healthy adult males; assay type: in vivo, human; details: for AUC(0-t): read-out: average AUClast of L-serine without baseline correction
Procedure: 24 hours before the administration with AST-001 (main component: L-serine), blood was collected to measure the concentration of L-serine. 60 g of an AST-001 powder is a white homogeneous powder without having foreign substances, divided and repackaged into an HDPE bottle or a bottle made of the same material, and the composition of this drug is such that 1,000 mg of the main component L-serine is comprised per 1,000 mg dose. [table]

mPFC pyramidal neurons = assay: Patch clamp of intrinsic excitability in BTBR mice; assay type: in vivo, mouse; details: 500 mg/kg orally for 2 weeks
Procedure: BTBR T+tf/J (BTBR), which is an animal of autism spectrum disorder, and C57BL/6 mice (used as a control group) were purchased from Jackson Laboratories. […] However, in a case where BTBR mice were orally administered with 500 mg/kg of AST-001 for 2 weeks, and then the firing rate of the action potential was measured, the firing rate of the action potential in the BTBR mice and the control group mice turned out to be similar (see FIG. 5B).

Question: With N[C@@H](CO)C(=O)O [AST-001, L-serine] as the molecule, how does the “number of dendrites (spine density of the synaptic dendrites)” value [1] read?
Answer: The value was “significantly reduced and similar to that of the control group”.

Question: What about the “interaction time with the non-familiar mouse vs interaction time with the familiar mouse” value [2] of the same molecule?
Answer: The value was “significantly higher”.

Question: And the “preference index for the non-familiar mouse” value [2]?
Answer: The value was “high”.

Question: And the “safety and drug tolerance” value (healthy adults)?
Answer: The value was “excellent safety and drug tolerance”.

Question: And the CLss/F ([3]; 15 g twice a day for 7 days, N = 7, mean ± SD)?
Answer: Its CLss/F is 21.97 ± 5.99 L/h.

Question: What about the AUC ([3]; male, human, blood, oral, 15 g, 15 g twice a day for 1 week, steady state, read-out: average AUCtau of L-serine without baseline correction) of the same molecule?
Answer: The AUC was roughly 883 µg·h/mL.

Question: And the AUC ([3]; male, human, blood, oral, 15 g, 15 g twice a day for 7 days, N = 7, mean ± SD, read-out: AUCtau, ss)?
Answer: The AUC was 729 ± 202 µg·h/mL.

Question: What about the Cmax ([3]; male, human, blood, oral, 15 g twice a day for 7 days, N = 7, mean ± SD) of the same molecule?
Answer: The Cmax was 212 ± 56.2 µg/mL.

Question: And the Vd/F ([3]; male, human, blood, oral, 15 g twice a day for 7 days, N = 7, mean ± SD, read-out: Vz/F)?
Answer: Its Vd/F is 348 ± 220 L.

Question: What about the half-life ([3]; male, human, blood, oral, 15 g twice a day for 7 days, N = 7, mean ± SD, read-out: t1/2 (converted)) of the same molecule?
Answer: The half-life was 11 ± 5.17 h.

Question: And the Tmax ([3]; male, human, blood, oral, 15 g twice a day for 7 days, N = 7, median value)?
Answer: The Tmax was 1 h.

Question: And the half-life ([3]; male, human, blood, oral, read-out: average half-life of extrinsically administered L-serine)?
Answer: The half-life was 6.5 to 14 h.

Question: And the AUC(0-t) ([3]; male, human, blood, oral, single administration 10 g)?
Answer: Its AUC(0-t) is 613 µg·h/mL.

Question: What about the AUC(0-t) ([3]; male, human, blood, oral, single administration 20 g) of the same molecule?
Answer: The AUC(0-t) was 1130 µg·h/mL.

Question: What about the AUC(0-t) ([3]; male, human, blood, oral, single administration 30 g) of the same molecule?
Answer: The AUC(0-t) was 1530 µg·h/mL.

Question: And the half-life ([3]; male, human, blood, po, 15 g orally twice a day for 7 days, steady state, read-out: average half-life (converted))?
Answer: Its half-life is roughly 11 h.

Question: And the “Cmax, AUClast, and AUCinf with increasing dosage” value ([3]; single oral 10 g, 15 g, 20 g or 30 g)?
Answer: The value was “linearly increased”.

Question: And the average accumulation index ([3]; steady state vs single administration with 15 g)?
Answer: The average accumulation index was “about 1.7 times”.

Question: And the “firing rate of the action potential, BTBR mice vs control group mice” value (mPFC pyramidal neurons)?
Answer: Its value is “similar”.
